# pKi: −log10 of the molar value.
# What was measured:
# SHR and WKY rats = test: mean arterial pressure and heart rate in anesthetized rats; assay type: in vivo, rat; details: 1 mg/kg i.v.
# SHR [1] = test: mean arterial pressure and heart rate in chronically cannulated conscious SHR; assay type: in vivo, rat; details: 0.5 mg/kg i.v.
# [2] = tested on: anandamide levels in hepatocytes; test: anandamide levels in hepatocytes; assay type: cell-based, mouse; details: 100 nM, dense suspension 40 mg/mL
# [3] = tested on: mice with diet-induced obesity; test: intraperitoneal glucose tolerance test in mice on high-fat diet; assay type: in vivo, mouse; details: male DIO mice
# [4] = tested on: [3H]anandamide uptake by cultured CCF-STTG1 astrocytoma cells; test: anandamide transport assay; details: concentrations up to 20 μmol/L
# CB2 receptors = biological target: T1, CB2 receptors (Rattus norvegicus, UniProt Q9QZN9); test: radioligand displacement, [3H]CP,55940, rat spleen membranes
# T1 sequence (Q9QZN9 1-360): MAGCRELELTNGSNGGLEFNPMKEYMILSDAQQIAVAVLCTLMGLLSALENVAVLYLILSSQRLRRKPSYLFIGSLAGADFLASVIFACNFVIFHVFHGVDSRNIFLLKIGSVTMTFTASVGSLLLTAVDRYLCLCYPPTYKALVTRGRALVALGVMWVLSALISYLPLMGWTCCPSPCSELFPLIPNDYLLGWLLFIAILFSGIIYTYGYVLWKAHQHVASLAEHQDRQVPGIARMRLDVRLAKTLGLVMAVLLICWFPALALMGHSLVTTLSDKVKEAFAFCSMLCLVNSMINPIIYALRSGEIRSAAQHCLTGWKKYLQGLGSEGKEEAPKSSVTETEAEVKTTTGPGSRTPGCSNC
# SHR [5] = test: cardiovascular effects under ganglionic blockade; details: 1 mg/kg, hexamethonium + vasopressin + isoproterenol
smiles,measurement,setting,value
"O=S(=O)(F)CCCCCc1ccc(O)cc1 [AM3506, 5-(4-hydroxyphenyl)pentanesulfonyl fluoride]",effect on HR,SHR and WKY rats; SHR,marked bradycardia
same,effect on MAP,SHR and WKY rats; SHR,profound and sustained decrease
same,effect on MAP and HR,SHR and WKY rats; WKY,only slight changes
same,duration of MAP and HR effects,"SHR [1]; awake SHR, n = 5",up to 60 minutes
same,MAP after treatment,"SHR [1]; conscious SHR, from 176 ±4, n=4",127±5 mmHg
same,HR after treatment,"SHR [1]; conscious SHR, from 355±6, n=4",286±22 bpm
same,duration of MAP and HR effects,"SHR [1]; conscious SHR, n=4",up to an hour
same,anandamide levels in hepatocytes,[2],remained unchanged
same,effect on glucose tolerance,[3]; 1 mg/kg,did not affect glucose tolerance
same,ipGTT area under the curve (AUC),"[3]; 1 mg/kg i.p. 60 min before glucose, vehicle 352±28",411 ± 35 mg·h/dL
same,effect on anandamide transport,[4],did not affect
same,pKi,CB2 receptors,6.72
same,reduction of the bradycardia elicited by AM3506 under ganglionic blockade,SHR [5],74.0±7.7%
same,reduction of the hypotension elicited by AM3506 under ganglionic blockade,SHR [5],89.6±3.6%

# From paper PMC3003779 (Chemistry & biology, 2010)
